Patent US20260248879A1, “METHODS OF USING A GCG/GLP1 CO-AGONIST FOR THERAPY” (ELI LILLY AND COMPANY, priority 2022, published 2026)
Several values for one entry are separate records, joined by “and”; a condition that tells them apart may be missing. Equal entries are not always repeated. Where two headings read alike, the source gives them in different places. Marks after values point to notes of the source that are not given here.

Assays:
[1] = human, in vivo
Excerpt: Up to two samples may be collected at additional time points during the study if warranted and agreed upon between both the investigator and sponsor.
All available PK data is utilized for model development.

[2] = tested on: patients with T2DM; assay: Example 1 study: appetite analysis (VAS); type: in vivo, human
Excerpt: To explore the effects of Compound 1 on meal intake and appetite sensation, subjects are asked to rate their appetite sensations using a 100-mm visual analogue scale
(VAS) for parameters of hunger, fullness, satiety, and prospective food consumption in the fasted state while inpatient as well as on scheduled outpatient visits. The VAS is a validated tool to assess appetite sensation parameters (Flint et al., Int J Obes Relat Metab Disord., 2000; 24(1):38-48). The VAS is presented as a 10-cm (100-mm) line, anchored by verbal descriptors, usually “extremely” and “not at all.” Subjects are required to rate their subjective sensations on four 100-mm scales combined with questions similar to the following: • “How hungry do you feel?” • “How satisfied do you feel?” • “How full do you feel?” • “How much do you think you could eat?”
Overall appetite score is calculated as the average of the 4 individual scores: satiety plus fullness plus (100−prospective food consumption) plus (100−hunger)/4 (van Can et al., Int J Obes (Lond). 2014; 38(6):784-793). The higher overall appetite score indicates less appetite, and the lower score indicates more appetite.
In respect of […], the satiety VAS (after fasting) is completed at baseline and Days 1, 29, 57, 78 and 80.
In respect of […], the satiety VAS (after fasting) is completed at baseline and Days 1, 22, 43, 64, 85, 106 and 108.
When the satiety VAS assessment coincides with the MMTT, it is performed pre-meal and 1 hour and 4 hours post MMTT.

[3] = tested on: patients with T2DM; assay: Example 1 study: Mixed Meal Tolerance Test (MMTT); type: in vivo, human
Procedure: In respect of Cohort 1, the MMTT is performed at baseline and on Day 80. In respect of Cohort 2, the MMTT is performed at baseline and on Day 108.
Patients are provided breakfast meals for the MMTTs. Upon awakening, patients consume water to stay hydrated in order to mitigate problems with blood sample collections. Patients are provided individualized breakfast meals for the MMTTs. The total caloric content is approximately 30% of the daily estimated caloric need for weight. The macronutrient composition of the meals is targeted to provide approximately 50% of the calories from carbohydrate, 30% of the calories from fat, and 20% of the calories from protein. Patients are fasted (except for water) for at least 8 hours before each test meal and consume each meal within approximately 20 minutes. Test meals for each patient are kept consistent with respect to calorie and nutrient content across all MMTT assessments in the study.
For both parts of the study, the patient is not allowed to consume water (apart from fluid provided with the meal) for approximately 3 hours post MMTT until BOD POD® measurement.
While resident in the CRU, patients may not consume any food or caloric drinks other than that provided by the CRU. When not resident in the CRU, patients may resume their regular diet. The actual time of meal start and completion, total calories, and amount of meal (%) consumed in the MMTT are recorded.

[4] = both treatment groups, over dosing periods
[5] = Cohort 1, escalated to 4.5 mg, Day 80
[6] = Cohort 2, escalated to 10.0 mg, Day 108

In the case of CC(C)C[C@H](NC(=O)[C@H](CC(C)C)NC(=O)[C@H](Cc1c[nH]c2ccccc12)NC(=O)[C@H](CCC(=O)O)NC(=O)[C@@H](NC(=O)[C@H](Cc1ccccc1)NC(=O)[C@H](CCC(=O)O)NC(=O)[C@H](CCCCNC(=O)COCCOCCNC(=O)COCCOCCNC(=O)CC[C@H](NC(=O)CCCCCCCCCCCCCCCCCCC(=O)O)C(=O)O)NC(=O)[C@H](C)NC(=O)[C@H](CCCCN)NC(=O)[C@H](CCCCN)NC(=O)[C@H](CCC(=O)O)NC(=O)[C@H](CC(=O)O)NC(=O)[C@H](CC(C)C)NC(=O)[C@H](Cc1ccc(O)cc1)NC(=O)[C@H](CCCCN)NC(=O)[C@H](CO)NC(=O)[C@H](Cc1ccc(O)cc1)NC(=O)[C@H](CC(=O)O)NC(=O)[C@H](CO)NC(=O)[C@@H](NC(=O)[C@H](Cc1ccccc1)NC(=O)[C@@H](NC(=O)CNC(=O)[C@H](CCC(N)=O)NC(=O)C(C)(C)NC(=O)[C@@H](N)Cc1c[nH]cn1)[C@@H](C)O)[C@@H](C)O)C(C)C)C(=O)N[C@@H](CCC(=O)O)C(=O)NCC(=O)NCC(=O)N1CCC[C@H]1C(=O)N[C@@H](CO)C(=O)N[C@@H](CO)C(=O)NCC(N)=O [Compound 1], the “t1/2, geomean (range)” value ([1]; 4.5 mg) is reported as 209 (117 to 362) h, the “t1/2, geomean (range)” value ([1]; 10 mg) is reported as 213 (129 to 366) h and the “Apparent clearance, CL/F, population mean estimate” value ([1]; sc) is reported as 0.0311 L/h. For the same compound, the overall appetite scores ([2]; all treatment groups incl. placebo, 12-week or 16-week dosing, higher score = less appetite) was “generally increase from baseline”, the hunger scores ([2]; both treatment groups, majority of time points) was “decrease from baseline” and the fullness scores [2, 4] was “increased from baseline”. For the same compound, the satiety scores [2, 4] was “decrease from baseline”, the VAS appetite assessments ([2]; higher dose cohort (FIG. 8)) was “reduced hunger, increased satiety, decreased overall appetite” and the “C-peptide AUC(0-3 h) during MMTT, mean” value ([3]; Cohort 1 (1.5-4.5 mg QW), Day 80, baseline 4391.4) was 5850.1 pmol·h/L. For the same compound, the “C-peptide AUC(0-3 h) during MMTT, change from baseline” value ([3]; Cohort 1, Day 80) was 1474.6* pmol · h/L, the “Disposition index, change from baseline” value ([3]; Cohort 1, Day 80) was −0.235 and the “First PH ISI-S, change from baseline” value ([3]; Cohort 1, Day 80) was 12090.422. The “Glucagon AUC(0-3 h) during MMTT, change from baseline” value ([3]; Cohort 1, Day 80) was -32.50 pmol·h/L, the “Glucose AUC(0-3 h) during MMTT, change from baseline” value ([3]; Cohort 1, Day 80) was -14.37 mmol·h/L and the “HOMA2-B, change from baseline” value ([3]; Cohort 1, Day 80) was 22.971. For the same compound, the “HOMA2-IR, change from baseline” value ([3]; Cohort 1, Day 80) was −0.434, the “ISI-M (Matsuda Index), change from baseline” value ([3]; Cohort 1, Day 80) was 0.237 and the “MMTT glucose AUC 0-3 hours, approximate decrease from baseline” value ([3]; Cohort 1, Day 80) was ~40%. For the same compound, the “Oxyntomodulin AUC(0-3 h) during MMTT, change from baseline” value ([3]; Cohort 1, Day 80) was -41.594 pmol·h/L, the “Second PH ISI-S, change from baseline” value ([3]; Cohort 1, Day 80) was 2273.29 and the “Disposition index, mean” value ([3]; Cohort 1, Day 80, baseline 1.033) was 0.642. The “ISI-M (Matsuda Index), mean” value ([3]; Cohort 1, Day 80, baseline 3.568) was 3.567, the “HOMA2-IR, mean” value ([3]; Cohort 1, Day 80, baseline 4.704) was 4.271 and the “HOMA2-B, mean” value ([3]; Cohort 1, Day 80, baseline 15.791) was 38.762. For the same compound, the “Glucose AUC(0-3 h) during MMTT, mean” value ([3]; Cohort 1, Day 80, baseline 43.06) was 25.76 mmol·h/L and 25.72 mmol·h/L, the “Glucagon AUC(0-3 h) during MMTT, mean” value ([3]; Cohort 1, Day 80, baseline 64.98) was 27.93 pmol·h/L and the “Oxyntomodulin AUC(0-3 h) during MMTT, mean” value ([3]; Cohort 1, Day 80, baseline 89.822) was 58.042 pmol·h/L. For the same compound, the “Second PH ISI-S (second phase Stumvoll Index), mean” value ([3]; Cohort 1, Day 80, baseline −6253.26) was −3634.241, the “First PH ISI-S (first phase Stumvoll Index), mean” value ([3]; Cohort 1, Day 80, baseline −33534.1) was −19605.805 and the “MMTT C-peptide AUC 0-3 hours, approximate increase from baseline” value [3, 5] was ~33%. The “MMTT glucagon AUC 0-3 hours, approximate decrease from baseline” value [3, 5] was ~57%, the “MMTT insulin AUC 0-3 hours, approximate increase from baseline” value [3, 5] was ~51% and the “Matsuda index (ISI-M) versus baseline” value [3, 5] was “no change from baseline”. For the same compound, the “MMTT insulin mean area under the curve 0-3 hours” value ([3]; Cohort 1, escalated to 4.5 mg, Day 80, baseline 125.233) was 189.435 h*mIU/L, the “C-peptide AUC(0-3 h) during MMTT, mean” value ([3]; Cohort 2 (2-10 mg QW), Day 108, baseline 3604.1) was 3147.4 pmol·h/L and the “C-peptide AUC(0-3 h) during MMTT, change from baseline” value ([3]; Cohort 2, Day 108) was -897.4 pmol·h/L. For the same compound, the “Disposition index, change from baseline” value ([3]; Cohort 2, Day 108) was −0.198, the “First PH ISI-S (first phase Stumvoll Index), mean” value ([3]; Cohort 2, Day 108) was −19372.347 and the “First PH ISI-S, change from baseline” value ([3]; Cohort 2, Day 108) was 11985.334. For the same compound, the “Glucagon AUC(0-3 h) during MMTT, change from baseline” value ([3]; Cohort 2, Day 108) was -40.55 pmol·h/L, the “Glucose AUC(0-3 h) during MMTT, change from baseline” value ([3]; Cohort 2, Day 108) was -15.73 mmol·h/L and the “HOMA2-B, change from baseline” value ([3]; Cohort 2, Day 108) was 3.824. For the same compound, the “HOMA2-IR, change from baseline” value ([3]; Cohort 2, Day 108) was −1.071, the “ISI-M (Matsuda Index), change from baseline” value ([3]; Cohort 2, Day 108) was 5.905 and the “Oxyntomodulin AUC(0-3 h) during MMTT, change from baseline” value ([3]; Cohort 2, Day 108) was -49.843 pmol·h/L. For the same compound, the “Second PH ISI-S, change from baseline” value ([3]; Cohort 2, Day 108) was 2252.292, the “Disposition index, mean” value ([3]; Cohort 2, Day 108, baseline 1.276) was 1.265 and the “HOMA2-IR, mean” value ([3]; Cohort 2, Day 108, baseline 2.7) was 1.325. For the same compound, the “ISI-M (Matsuda Index), mean” value ([3]; Cohort 2, Day 108, baseline 4.616) was 10.7, the “HOMA2-B, mean” value ([3]; Cohort 2, Day 108, baseline 9.108) was 12.077 and the “Glucose AUC(0-3 h) during MMTT, mean” value ([3]; Cohort 2, Day 108, baseline 38.27) was 23.74 mmol·h/L. The “Glucagon AUC(0-3 h) during MMTT, mean” value ([3]; Cohort 2, Day 108, baseline 39.89) was 7.61 pmol·h/L, the “Oxyntomodulin AUC(0-3 h) during MMTT, mean” value ([3]; Cohort 2, Day 108, baseline 124.741) was 66.077 pmol·h/L and the “Second PH ISI-S (second phase Stumvoll Index), mean” value ([3]; Cohort 2, Day 108, baseline −5889.19) was −3593.001. For the same compound, the “MMTT C-peptide AUC 0-3 hours, approximate decrease from baseline” value [3, 6] was ~13%, the “MMTT glucagon AUC 0-3 hours, approximate decrease from baseline” value [3, 6] was ~81% and the “MMTT glucose AUC 0-3 hours, approximate decrease from baseline” value [3, 6] was ~38%. The “MMTT insulin AUC 0-3 hours, approximate decrease from baseline” value [3, 6] was ~10%, the “Matsuda index (ISI-M), approximate increase from baseline” value [3, 6] was “approximately 132%” and the “MMTT insulin area under the curve 0-3 hours” value ([3]; Cohort 2, escalated to 10.0 mg, Day 108, baseline 77.692) was 69.847 h*mIU/L. The “sMMTT total cholesterol levels” value ([3]; Cohort 2 doses (FIG. 7b)) was “substantially reduced”, the “sMMTT HDL cholesterol levels” value ([3]; Cohort 2 doses (FIG. 7e)) was “substantially reduce” and the “sMMTT LDL cholesterol levels” value ([3]; Cohort 2 doses (FIG. 7f)) was “substantially reduce”. For the same compound, the sMMTT triglyceride levels ([3]; Cohort 2 doses (FIG. 7h)) was “substantially reduce”, the “reduction of glucagon secretion from baseline in response to mixed meals” value ([3]; dose up to 4.5 mg) was “greater than 50%” and the “reduction of glucagon secretion from baseline in response to mixed meals” value ([3]; dose up to 10 mg) was “greater than 80%”.
